PMC12655172, “Borylated 5-Membered Ring Iminosugars: Synthesis and Biological Evaluation for Glycosidase Inhibition and Anticancer Properties for Application in Boron Neutron Capture Therapy (BNCT)—Part 2” (Pharmaceuticals, 2025)
Entries after “also recorded” stand apart in the source; their conditions may differ.

Tests used:
Format in all cases: biochemical
[1] = test system: N-acetyl-β-D-glucosaminidase (bovine kidney); experiment: Glycosidase inhibition (Table 3 panel); settings: 1 mg/mL aqueous solution; run in water
Outline: (§1)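 Enzymes tested at 27 °C in citric acid/disodium hydrogen phosphate buffer at each enzyme's optimum pH, with 1 mg/mL aqueous extract and […] para-nitrophenyl substrate. Reactions stopped with 0.4 M glycine (pH 10.4) within the exponential phase; absorbance read at 405 nm, triplicate means.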

[2] = test system: α-D-glucosidase (Bacillus); experiment: Glycosidase inhibition (Table 3 panel); settings: 1 mg/mL aqueous solution; run in water
Outline: as §1

[3] = test system: T1, α-D-mannosidase (Jack bean); experiment: Glycosidase inhibition (Table 3 panel); settings: 1 mg/mL aqueous solution; run in water
T1 construct: purchased Sigma-Aldrich; host or cells: Jack bean
Outline: as §1

[4] = test system: glycosidases in the panel; experiment: Glycosidase inhibition, whole Table 2 panel
Text: The enzymes α-D-glucosidase (yeast), β-D-glucosidases (almond, bovine liver), α-D-galactosidase (coffee beans), β-D-galactosidase (bovine liver), α-D-mannosidase (Jack bean), β-D-mannosidase (snail), α-L-rhamnosidase (P. decumbens), α-L-fucosidase (bovine kidney), trehalase (porcine kidney), β-D-glucuronidases (E. coli, bovine liver), amyloglucosidase (A. niger), para-nitrophenyl glycosides, and various disaccharides were purchased from Sigma-Aldrich Co (St. Louis, MO, USA).
Brush border membranes were prepared from the rat small intestine according to the method of Kessler et al., and were assayed at pH 6.8 for rat intestinal maltase using maltose. For rat intestinal maltase, porcine kidney trehalase, and A. niger amyloglucosidase activities, the reaction mixture contained maltose ([…]) and the appropriate amount of enzyme, and the incubations were performed for 10–30 min at 37 °C. The reaction was stopped by heating at 100 °C for 3 min. After centrifugation (600 g; 10 min), the resulting reaction mixture was added to the Glucose CII-test Wako (Wako Pure Chemical Ind., Osaka, Japan). The absorbance at 505 nm was measured to determine the amount of the released D-glucose. Other glycosidase activities were determined using an appropriate para-nitrophenyl glycoside as substrate at the optimum pH of each enzyme. The reaction mixture contained the substrate ([…]) and the appropriate amount of enzyme. The reaction was stopped by the addition of Na2CO3 ([…]). The released para-nitrophenol was measured spectrometrically at 400 nm. All reactions were run in […].

| Compound | Percentage inhibition N-Acetyl-β-D-glucosaminidase Bovine Kidney [1] [%] | Percentage inhibition α-D-Glucosidase Bacillus [2] [%] | Percentage inhibition α-D-Mannosidase Jack Bean [3] [%] | Inhibitory activity over the glycosidase panel, in words [4] |
| --- | --- | --- | --- | --- |
| N[C@@H](Cc1ccc(B(O)O)cc1)C(=O)O [BPA, 4-borono-L-phenylalanine, reference compound] | 6.7 | 19.9 | 0.6 | – |
| N[C@@H](Cc1ccc(B(O)O)cc1)C(=O)O [^10B-BPA, reference compound] | 6.3 | 19.5 | −0.7 | – |
| CC1(C)O[C@H]2O[C@H]3[C@@H]([C@H]2O1)N(Cc1cccc(B(O)O)c1)C[C@H]3O [meta 5, N-(3-Methylphenylboronic acid)-3,6-dideoxy-3,6-imino-1,2-O-isopropylidene-α-D-glucofuranose] | – | – | – | abrogates inhibitory activity |
| CC1(C)O[C@H]2O[C@H]3[C@@H]([C@H]2O1)N(Cc1cccc(O)c1)C[C@H]3O [meta 6] | – | – | – | abrogates inhibitory activity |
| CC1(C)O[C@H]2O[C@H]3[C@@H]([C@H]2O1)N(Cc1ccccc1B(O)O)C[C@H]3O [ortho 5] | – | – | – | abrogates inhibitory activity |
| Borocaptate sodium [BSH, reference compound] | 37.1 | 48.1 | −18.7 | – |
| N-(3-Hydroxyphenyl)-1,4-dideoxy-1,4-imino-L-gulitol [meta 7] | – | – | – | complete abrogation of inhibition; also recorded: abrogation of biological activity |
